From patent US8410126B2, “Pyrimidine inhibitors of PKTK2” (Boehringer Ingelheim International GmbH, priority 2009, dated 2013)

Biological target: T1, PTK2 (Homo sapiens, UniProt Q05397)
T1 construct: purchased Invitrogen PV3832
Test: PTK2 enzyme test Assay 1 (DELFIA, poly-Glu-Tyr substrate, PT60 antibody)
Type: biochemical
Settings: Assay 1 (values without *); 1 h pre-incubation, 50 μM ATP mix, final DMSO 2%
Experimental: This test uses active PTK2 enzyme (Invitrogen Code PV3832) and poly-Glu-Tyr (4:1, Sigma P-0275) as the kinase substrate. The kinase activity is detected through the phosphorylation of the substrate in a DELFIA™ assay. The phosphorylated substrate is detected with the europium-labelled phosphotyrosine antibody PT60 (Perkin Elmer, No.: AD00400).
In order to determine concentration-activity curves with PTK2-inhibitors the compounds are serially diluted in 10% DMSO/H2O and 10 μL of each dilution are placed in each well of a 96-well microtitre plate (clear plate with a U-shaped base, Greiner No. 650101) (the inhibitors are tested in duplicates) and mixed with 10 μL/well of PTK2 kinase (0.01 μg/well). PTK2 kinase has been correspondingly diluted beforehand with kinase dilution buffer (20 mM TRIS/HCl pH 7.5, 0.1 mM EDTA, 0.1 mM EGTA, 0.286 mM sodium orthovanadate, 10% glycerol with the addition of freshly prepared BSA (fraction V, 1 mg/mL) and DTT (1 mM)). The test compound and the PTK2 kinase are pre-incubated for 1 h at RT and shaken at 500 revolutions per min. The reaction is started by the addition of 10 μL/well poly (Glu,Tyr) substrate (25 μg/well poly (Glu, Tyr), 0.05 μg/well biotinylated poly (Glu,Tyr) dissolved in 250 mM TRIS/HCl pH 7.5, 9 mM DTT)—the final concentration of DMSO is 2%. Then 20 μL of ATP Mix (30 mM TRIS/HCl pH 7.5, 0.02% Brij, 0.2 mM sodium orthovanadate, 10 mM magnesium acetate, 0.1 mM EGTA, 1× phosphatase inhibitor cocktail 1 (Sigma, No.: P2850), 50 μM ATP (Sigma, No.: A3377; 15 mM stock solution)) are added. After 1 h of kinase reaction (the plates are shaken at 500 rpm), the reaction is stopped by the addition of 12 μL/well 100 mM EDTA, pH 8.0 and shaken for a further 5 min at RT (500 rpm). 55 μL of the reaction mixture are transferred into a streptavidin plate (Strepta Well High Bind (transparent, 96-well) made by Roche, No.: 11989685001) and incubated for 1 h at RT (shaking at 500 rpm). Then the microtitre plate is washed three times with 200 μL/well D-PBS (Invitrogen, No. 14190). 100 μL of a solution containing DELFIA Eu-N1 Anti-Phosphotyrosine PT60 antibody (Perkin Elmer, No.: AD0040, diluted 1:2000 in DELFIA test buffer (Perkin Elmer, No.: 1244-111)) is then added and the mixture is incubated for 1 h at RT (shaking at 500 rpm). Then the plate is washed three times with 200 μL/well DELFIA washing buffer (Perkin Elmer, No.: 1244-114), 200 μL/well strengthening solution (Perkin Elmer, No.: 1244-105) are added and the mixture is incubated for 10 min at RT (shaking at 300 rpm).
The time-delayed europium fluorescence is then measured in a microtitre plate reader (VICTOR^3, Perkin Elmer). […] Wells that contain test buffer instead of enzyme are used as a control of the background kinase activity.
The IC50 values are determined from analyses of the concentration activity by iterative calculation with the aid of a sigmoid curve analysis algorithm (FIFTY, based on GraphPAD Prism Version 3.03) with a variable Hill coefficient.

T1 sequence (Q05397 whole entry): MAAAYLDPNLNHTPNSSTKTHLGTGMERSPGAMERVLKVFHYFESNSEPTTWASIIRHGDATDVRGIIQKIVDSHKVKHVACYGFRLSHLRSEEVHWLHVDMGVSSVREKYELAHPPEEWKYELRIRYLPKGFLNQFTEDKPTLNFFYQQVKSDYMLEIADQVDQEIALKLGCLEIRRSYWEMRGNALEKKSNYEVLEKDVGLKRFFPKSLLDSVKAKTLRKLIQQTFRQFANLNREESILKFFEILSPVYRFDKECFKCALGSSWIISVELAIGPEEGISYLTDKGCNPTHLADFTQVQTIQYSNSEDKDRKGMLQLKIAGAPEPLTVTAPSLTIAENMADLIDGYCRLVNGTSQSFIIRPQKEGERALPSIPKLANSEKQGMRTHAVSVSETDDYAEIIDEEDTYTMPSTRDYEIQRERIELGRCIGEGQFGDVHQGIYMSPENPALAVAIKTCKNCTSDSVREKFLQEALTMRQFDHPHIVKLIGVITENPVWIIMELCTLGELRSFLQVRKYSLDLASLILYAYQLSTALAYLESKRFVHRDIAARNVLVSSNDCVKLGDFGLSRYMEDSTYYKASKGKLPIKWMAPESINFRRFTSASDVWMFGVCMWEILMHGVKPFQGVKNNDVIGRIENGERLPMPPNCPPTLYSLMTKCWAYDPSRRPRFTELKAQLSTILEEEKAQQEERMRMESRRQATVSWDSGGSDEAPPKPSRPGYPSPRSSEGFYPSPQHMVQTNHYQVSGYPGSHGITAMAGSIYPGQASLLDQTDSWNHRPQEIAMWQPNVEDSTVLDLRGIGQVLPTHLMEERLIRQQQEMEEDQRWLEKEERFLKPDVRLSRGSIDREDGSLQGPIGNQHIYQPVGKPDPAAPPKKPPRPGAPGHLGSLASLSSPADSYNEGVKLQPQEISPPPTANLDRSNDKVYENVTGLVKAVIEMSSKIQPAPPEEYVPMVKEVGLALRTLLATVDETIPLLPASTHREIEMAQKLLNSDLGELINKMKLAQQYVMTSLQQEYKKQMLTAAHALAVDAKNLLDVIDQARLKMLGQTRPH

| SMILES | IC50 [nM] |
| --- | --- |
| COc1cc(C(=O)NC2CCN(C)CC2)ccc1Nc1ncc(C(F)(F)F)c(N[C@@H]2Cc3ccccc3[C@H]2NC(C)=O)n1 [Example I-1] | 2 |
| COc1cc(C(=O)NCCN(C)C)ccc1Nc1ncc(C(F)(F)F)c(N[C@@H]2Cc3ccccc3[C@H]2NS(C)(=O)=O)n1 [Example I-3, N-(2-dimethylamino-ethyl)-4-[4-((1R,2R)-1-methanesulphonylamino-indan-2-ylamino)-5-trifluoromethyl-pyrimidin-2-ylamino]-3-methoxy-benzamide] | 2 |
| COc1cc(C(=O)NC2CCN(C)CC2)ccc1Nc1ncc(C(F)(F)F)c(N[C@@H]2Cc3ccccc3[C@H]2N(C)S(C)(=O)=O)n1 [Example I-5, 4-{4-[(1R,2R)-1-(methanesulphonyl-methyl-amino)-indan-2-ylamino]-5-trifluoromethyl-pyrimidin-2-ylamino}-3-methoxy-N-(1-methyl-piperidin-4-yl)-benzamide] | 2 |
| COc1cc(C(=O)NC2CCCN(C)C2)ccc1Nc1ncc(C(F)(F)F)c(N[C@@H]2Cc3ccccc3[C@H]2N(C)S(C)(=O)=O)n1 (stereo partly drawn) [Example I-6] | 0.96 |
| COc1cc(C(=O)NC2CCC(N3CCN(CC4CC4)CC3)CC2)ccc1Nc1ncc(C(F)(F)F)c(N[C@@H]2Cc3ccccc3[C@H]2N(C)S(C)(=O)=O)n1 (stereo partly drawn) [Example I-7] | 1 |
| COc1cc(C(=O)NC2CCN(C)CC2)ccc1Nc1ncc(C(F)(F)F)c(N[C@@H]2Cc3ccccc3[C@H]2NS(C)(=O)=O)n1 [Example I-8] | 2 |
| CNCc1ccc(Nc2ncc(C(F)(F)F)c(N[C@@H]3Cc4ccccc4[C@H]3NS(C)(=O)=O)n2)c(OC)c1 [Example I-9] | 2 |
| CNC(=O)c1ccc(Nc2ncc(C(F)(F)F)c(N[C@@H]3Cc4ccccc4[C@H]3NS(C)(=O)=O)n2)c(OC)c1 [Example I-10] | 2 |
| CCN1CCC(NC(=O)c2ccc(Nc3ncc(C(F)(F)F)c(N[C@@H]4Cc5ccccc5[C@H]4NC(C)=O)n3)c(OC)c2)CC1 [Example I-11] | 2 |
| COc1cc(C(=O)NC2CCC(N3CCN(CC4CC4)CC3)CC2)ccc1Nc1ncc(C(F)(F)F)c(N[C@@H]2Cc3ccccc3[C@H]2NC(C)=O)n1 (stereo partly drawn) [Example I-12] | 4 |
| COCCN1CCC(NC(=O)c2ccc(Nc3ncc(C(F)(F)F)c(N[C@@H]4Cc5ccccc5[C@H]4NC(C)=O)n3)c(OC)c2)CC1 [Example I-13] | 3 |
| COc1cc(C(=O)NC2CCCN(C)C2)ccc1Nc1ncc(C(F)(F)F)c(N[C@@H]2Cc3ccccc3[C@H]2NC(C)=O)n1 (stereo partly drawn) [Example I-14] | 2 |
| COc1cc(C(=O)NC2CCOCC2)ccc1Nc1ncc(C(F)(F)F)c(N[C@@H]2Cc3ccccc3[C@H]2NC(C)=O)n1 [Example I-15] | 4 |
| COCCNC(=O)c1ccc(Nc2ncc(C(F)(F)F)c(N[C@@H]3Cc4ccccc4[C@H]3NC(C)=O)n2)c(OC)c1 [Example I-16] | 2 |
| CONC(=O)c1ccc(Nc2ncc(C(F)(F)F)c(N[C@@H]3Cc4ccccc4[C@H]3NC(C)=O)n2)c(OC)c1 [Example I-17] | 2 |
| CNC(=O)c1ccc(Nc2ncc(C(F)(F)F)c(N[C@@H]3Cc4ccccc4[C@H]3NC(C)=O)n2)c(OC)c1 [Example I-18] | 2 |
| COc1cc(C(=O)NC2CCC(N3CCOCC3)CC2)ccc1Nc1ncc(C(F)(F)F)c(N[C@@H]2Cc3ccccc3[C@H]2NC(C)=O)n1 (stereo partly drawn) [Example I-19] | 3 |
| COc1cc(C(=O)NCCN(C)C)ccc1Nc1ncc(C(F)(F)F)c(N[C@@H]2Cc3ccccc3[C@H]2NC(C)=O)n1 [Example I-20] | 1 |
| COc1cc(N2CCN(C)CC2)ccc1Nc1ncc(C(F)(F)F)c(N[C@@H]2Cc3ccccc3[C@H]2NC(C)=O)n1 [Example I-26] | 2 |
| CNC(=O)c1ccc(Nc2ncc(Cl)c(N[C@@H]3Cc4ccccc4[C@H]3N(C)S(C)(=O)=O)n2)c(OC)c1 [Example I-34] | 7 |

| SMILES | IC50 [nM] |
| --- | --- |
| COc1cc(CN2CCOCC2)ccc1Nc1ncc(C(F)(F)F)c(N[C@@H]2Cc3ccccc3[C@H]2NC(C)=O)n1 [Example I-38] | 2 |
| COc1cc(N2CCN(C)CC2)ccc1Nc1ncc(C(F)(F)F)c(N[C@@H]2Cc3ccccc3[C@H]2N(C)S(C)(=O)=O)n1 [Example I-39, N-((1R,2R)-2-{2-[2-methoxy-4-(4-methyl-piperazin-1-yl)-phenylamino]-5-trifluoromethyl-pyrimidin-4-ylamino}-indan-1-yl)-N-methyl-methanesulphonamide] | 3 |
| COc1cc(N2CCN(CC(=O)N(C)C)CC2)ccc1Nc1ncc(C(F)(F)F)c(N[C@@H]2Cc3ccccc3[C@H]2N(C)S(C)(=O)=O)n1 [Example I-40] | 3 |
| COCCNC(=O)c1ccc(Nc2ncc(C(F)(F)F)c(N[C@@H]3Cc4ccccc4[C@H]3N(C)S(C)(=O)=O)n2)c(OC)c1 [Example I-45] | 2 |
| COc1cc(C(=O)NC2CCN(C)CC2)c(F)cc1Nc1ncc(C(F)(F)F)c(N[C@@H]2Cc3ccccc3[C@H]2N(C)S(C)(=O)=O)n1 [Example I-46, 2-fluoro-4-{4-[(1R,2R)-1-(methanesulphonyl-methyl-amino)-indan-2-ylamino]-5-trifluoromethyl-pyrimidin-2-ylamino}-5-methoxy-N-(1-methyl-piperidin-4-yl)-benzamide] | 2 |
| COc1cc(C(=O)NC2CCCN(C)C2)c(F)cc1Nc1ncc(C(F)(F)F)c(N[C@@H]2Cc3ccccc3[C@H]2N(C)S(C)(=O)=O)n1 (stereo partly drawn) [Example I-47] | 3 |
| COc1cc(C(=O)NCCN(C)C)c(F)cc1Nc1ncc(C(F)(F)F)c(N[C@@H]2Cc3ccccc3[C@H]2N(C)S(C)(=O)=O)n1 [Example I-48] | 1 |
| CNC(=O)c1cc(OC)c(Nc2ncc(C(F)(F)F)c(N[C@@H]3Cc4ccccc4[C@H]3N(C)S(C)(=O)=O)n2)cc1F [Example I-49] | 6 |
| COc1cc(C(=O)NC2CCOCC2)c(F)cc1Nc1ncc(C(F)(F)F)c(N[C@@H]2Cc3ccccc3[C@H]2N(C)S(C)(=O)=O)n1 [Example I-50] | 8 |
| COc1cc(C(=O)NC2CCC(N3CCN(CC4CC4)CC3)CC2)c(F)cc1Nc1ncc(C(F)(F)F)c(N[C@@H]2Cc3ccccc3[C@H]2N(C)S(C)(=O)=O)n1 (stereo partly drawn) [Example I-51] | 4 |
| COc1cc(C(=O)NCCN(C)C)ccc1Nc1ncc(C(F)(F)F)c(N[C@@H]2Cc3ccccc3[C@H]2N(C)S(C)(=O)=O)n1 [Example I-52] | 1 |
| COc1cc(C(=O)NC2CCN(C)CC2)c(C)cc1Nc1ncc(C(F)(F)F)c(N[C@@H]2Cc3ccccc3[C@H]2N(C)S(C)(=O)=O)n1 [Example I-53] | 1 |
| COc1cc(C(=O)NCCN(C)C)c(C)cc1Nc1ncc(C(F)(F)F)c(N[C@@H]2Cc3ccccc3[C@H]2N(C)S(C)(=O)=O)n1 [Example I-54] | 0.84 |
| COc1cc(N2CCN(CC3CC3)CC2)ccc1Nc1ncc(C(F)(F)F)c(N[C@@H]2Cc3ccccc3[C@H]2N(C)S(C)(=O)=O)n1 [Example I-56] | 3 |
| COc1cc(N2CCN(C3COC3)CC2)ccc1Nc1ncc(C(F)(F)F)c(N[C@@H]2Cc3ccccc3[C@H]2N(C)S(C)(=O)=O)n1 [Example I-57] | 3 |
| COc1cc(C(=O)NCCN(C)C)c(Cl)cc1Nc1ncc(C(F)(F)F)c(N[C@@H]2Cc3ccccc3[C@H]2N(C)S(C)(=O)=O)n1 [Example I-58] | 4 |
| COc1cc(C(=O)NOCCN(C)C)ccc1Nc1ncc(C(F)(F)F)c(N[C@@H]2Cc3ccccc3[C@H]2N(C)S(C)(=O)=O)n1 [Example I-59] | 0.83 |
| COc1cc(C(=O)NC2CCN(C)CC2)c(Cl)cc1Nc1ncc(C(F)(F)F)c(N[C@@H]2Cc3ccccc3[C@H]2N(C)S(C)(=O)=O)n1 [Example I-60, 2-chloro-4-{4-[(1R,2R)-1-(methanesulphonyl-methyl-amino)-indan-2-ylamino]-5-trifluoromethyl-pyrimidin-2-ylamino}-5-methoxy-N-(1-methyl-piperidin-4-yl)-benzamide] | 1 |
| COc1cc(Nc2ncc(C(F)(F)F)c(N[C@@H]3Cc4ccccc4[C@H]3N(C)S(C)(=O)=O)n2)ccc1C(=O)NC1CCN(C)CC1 [Example I-64] | 0.76 |
